Laboratory results taken from paper PMC4052546 (Pharmaceuticals, 2011).
Where “and” joins values, the source holds several entries; their conditions need not be identical. Equal values may be shown once. Read-outs that look alike come from different tables or passages of the source.

Assays:
[1] = rat, in vivo
Description: An automated blood sampler (Culex ABS, Bioanalytical Systems, Inc. West Lafayette, IN) was used for rat blood sample collection.
(§1) Three samples were collected during each phase of absorption, distribution, or elimination for full PK analysis on the first and last dosing days following intravenous bonus injection. Additionally, trough levels (pre-dose) samples were collected in between each dose to follow drug accumulation and a series PK approach (18 samples per animal) was used. Thus, each animal was dosed and plasma samples were obtained for up to three days. A total of 18 (0, 5, 15, 30, 45 min, 1, 2, 3, 6, 24.25, 48.167, 48.25, 48.5, 48.75, 49, 50, 51, and 54 h) samples were collected into cooled vials. 50 μL of blood per sample was collected pre-dosing and after dosing and 100 μL per sample was taken from 0.08 h to 56 h after dosing. During collection, blood samples were added into the vials, which contained dried heparin (50 units) on the bottom of each vial. Thus, a total blood volume of 1.75 mL was obtained from each rat during the three day treatment period (0.85 mL of blood on day 0, 0.1 mL on day 1, and 0.9 mL on day 2), which is 9.3% of the animals total blood volume. Subjects for replicated crossover design were followed FDA recommendation [22] with a 2 week wash out period. During wash-out period, if the catheter was blocked up by any reasons the jugular vein tubes were infused or replaced.
The area under the curve (AUC) was determined by the linear trapezoidal rule with extrapolation to infinity based on the concentration of the last time point divided by the terminal rate constant.

[2] = more active; cited from earlier work
[3] = cited from earlier work
[4] = Pharmacokinetics of AS and DHA in rat plasma after single and multiple intravenous AS injections (automated blood sampler, LC-MS/MS);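 for all read-outs here: blood drawn through a jugular vein catheter by an automated sampling system, plasma drug levels measured by LC-MS/MS with positive electrospray ionization against standard curves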; type: in vivo, Sprague-Dawley rats; settings: for AUC0–3 h / Cmin / Degree of Fluctuation = 100% × (Cmax − Cmin)/Cav / Cmax / MRT / Tmax / AUC(0-t) / AUC / half-life / average plasma concentration over 0–72 h (Cav = AUC0–72 h/72): 20 mg/kg i.v. daily for 3 days, male rats; for Cmax / MRT / Tmax / AUC(0-t) / AUC / half-life / average plasma concentration over 0–72 h (Cav = AUC0–72 h/72): male, Sprague-Dawley, rat, plasma, iv, 20 mg/kg; for AUC(0-t): read-out: AUC0–3 h; for AUC: read-out: AUCinfininty
Protocol: The Culex ABS is a blood sampling and metabolism monitoring machine, which is controlled by its own internal computer. We were successful in evaluating PK for long-term periods by using this system. After jugular vein cannulation, study animals were individually placed in the system, which allowed for a micro-pump to infuse heparinized-saline (10 unit heparin/mL saline) at a rate of 1-2 μL/min to prevent coagulation within the catheter. Culex samples were obtained with precise blood volumes from the study animals and the total volume taken was less than 6% per day and 14% during the entire study period. Blood samples were maintained at 3 °C using Culex's temperature-controlled fractional collector. Plasma was separated from the blood samples and processed for drug extraction.
as §1
The samples were vortexed vigorously (set at 10 or max setting) for 8–10 sec followed by a 10,000 × g centrifugation at 4 °C for 10 min. Aliquots (approximately 250 μL ea) of the undisturbed supernatants were transferred into a 96-well plate for LC-MS/MS analyses. […] Drugs were chromatographically separated using an acetonitrile/ammonium acetate gradient through a Waters XTerra C18 column (2.1 × 50 mm, 3.5 μm particle size) and corresponding pre-column. Quantification was done using the most abundant daughter ions following positive electrospray ionization. Chromatograms were analyzed using Xcalibur mass spectrometry software. The responses-concentrations standard curves were fitted and weighted.
The area under the curve (AUC) was determined by the linear trapezoidal rule with extrapolation to infinity based on the concentration of the last time point divided by the terminal rate constant. The bioequivalence (BE) evaluation of the two formulations were analyzed by using BE software (WinNonlin 5.2, Pharsight Co. Mountain View, CA. USA) in rats for a NDA application.

[5] = male, Sprague-Dawley, iv, 20 mg/kg, 1 day
[6] = Chinese formulation (AS/NaHCO3), Period 1, Day 3
[7] = Chinese formulation (AS/NaHCO3), Period 2, Day 3
[8] = WRAIR formulation (AS/0.3M PBS Buffer), Period 1, Day 3
[9] = WRAIR formulation (AS/0.3M PBS Buffer), Period 2, Day 3
[10] = Chinese formulation (AS/NaHCO3), Period 1, Day 1
[11] = Chinese formulation (AS/NaHCO3), Period 2, Day 1
[12] = WRAIR formulation (AS/0.3M PBS Buffer), Period 1, Day 1
[13] = WRAIR formulation (AS/0.3M PBS Buffer), Period 2, Day 1

In the case of `C[C@H]1[C@@H](O)O[C@@H]2O[C@@]3(C)CC[C@H]4[C@H](C)CC[C@@H]1[C@@]24OO3` [DHA, dihydroartemisinin], the “90% CI for the difference between the two i.v. formulations, AUC1–3D” value ([1]; Sprague-Dawley, iv) is reported as 79.11–120.89%, the “90% CI of the difference between the two intravenous formulations, AUCD3” value ([1]; Sprague-Dawley, iv, 3 day) is reported as 71.32–128.67% and the “90% CI for T/R, Lower, AUCD1” value [1, 5] is reported as 82.04%. The “90% CI for T/R, Upper, AUCD1” value [1, 5] was 117.96%, the “BE (bioequivalence), AUCD1” value [1] was “Yes” and the “BE (bioequivalence), Cmax D1” value [1] was “No”. The “90% CI between the two intravenous formulations, AUC0–3 h” value ([1]; iv) was 82.04–117.96%, the “activity compared with other artemisinin derivatives” value [2] was 3-5 fold and the “elimination half-life (t1/2)” value [3] was 40 to 60 min. The “AUC0–3 h” value [4, 6] was 990.8 ± 224.7 ng·h/mL, the Cmin [4, 6] was 2.96 ± 2.31 ng/mL and the “Degree of Fluctuation = 100% × (Cmax − Cmin)/Cav” value [4, 6] was 860% and 860.1 ± 121.1%. The “AUC0–3 h” value [4, 7] was 905.2 ± 188.7 ng·h/mL, the Cmin [4, 7] was 4.52 ± 2.25 ng/mL and the “Degree of Fluctuation = 100% × (Cmax − Cmin)/Cav” value [4, 7] was 844 ± 64%. The “time at which Cmax was measured” value ([4]; Chinese formulation, 20 mg/kg i.v., rats, period 1, day 1) was 15 min, the “time at which Cmax was measured” value ([4]; Chinese formulation, 20 mg/kg i.v., rats, period 2, day 1) was 15 min and the “time at which Cmax was observed” value ([4]; Chinese formulation, 20 mg/kg i.v., rats, period 2, day 3) was 15 min. The Cmin [4, 8] was 6.59 ± 3.06 ng/mL, the Cmin [4, 9] was 5.38 ± 3.77 ng/mL and the “time at which Cmax was measured” value ([4]; WRAIR formulation, 20 mg/kg i.v., rats, period 1, day 1) was 15 min. It also gave a Cmax [4, 10] of 3360 ng/mL, an MRT [4, 10] of 22.8 ± 7.8 min and a Tmax [4, 10] of 15 min. It also gave an AUC(0-t) [4, 10] of 1570 ng·h/mL, an AUC [4, 10] of 1570 ± 350 ng·h/mL and a half-life ([4]; Chinese formulation (AS/NaHCO3), Period 1, Day 1, read-out: t1/2 distribution (converted)) of 7.2 ± 1.2 min. The half-life ([4]; Chinese formulation (AS/NaHCO3), Period 1, Day 1, read-out: t1/2 elimination (converted)) was 45 ± 6 min, the Cmax [4, 6] was 2780 ng/mL and the MRT [4, 6] was 21 ± 3.6 min. It also gave a Tmax [4, 6] of 10.2 ± 5.4 min, an average plasma concentration over 0–72 h (Cav = AUC0–72 h/72) [4, 6] of 330 ng·h/mL and an AUC(0-t) [4, 6] of 991 ng·h/mL. For the same compound, the AUC [4, 6] was 994 ± 225 ng·h/mL, the half-life ([4]; Chinese formulation (AS/NaHCO3), Period 1, Day 3, read-out: t1/2 distribution (converted)) was 5.4 ± 0.6 min and the half-life ([4]; Chinese formulation (AS/NaHCO3), Period 1, Day 3, read-out: t1/2 elimination (converted)) was 40.8 ± 9 min. For the same compound, the Cmax [4, 11] was 2690 ng/mL, the MRT [4, 11] was 27.6 ± 8.4 min and the Tmax [4, 11] was 15 min. It also gave an AUC(0-t) [4, 11] of 1220 ng·h/mL, an AUC [4, 11] of 1230 ± 266 ng·h/mL and a half-life ([4]; Chinese formulation (AS/NaHCO3), Period 2, Day 1, read-out: t1/2 distribution (converted)) of 7.2 ± 1.2 min. It also gave a half-life ([4]; Chinese formulation (AS/NaHCO3), Period 2, Day 1, read-out: t1/2 elimination (converted)) of 43.8 ± 10.2 min, a Cmax [4, 7] of 2450 ng/mL and an MRT [4, 7] of 22.8 ± 1.2 min. The Tmax [4, 7] was 15 min, the AUC(0-t) [4, 7] was 905 ng·h/mL and the AUC [4, 7] was 910 ± 188 ng·h/mL. The half-life ([4]; Chinese formulation (AS/NaHCO3), Period 2, Day 3, read-out: t1/2 distribution (converted)) was 4.8 ± 0.6 min, the half-life ([4]; Chinese formulation (AS/NaHCO3), Period 2, Day 3, read-out: t1/2 elimination (converted)) was 43.2 ± 7.2 min and the Cmax [4, 12] was 3150 ng/mL. For the same compound, the MRT [4, 12] was 23.4 ± 4.8 min, the Tmax [4, 12] was 15 min and the AUC(0-t) [4, 12] was 1460 ng·h/mL. For the same compound, the AUC [4, 12] was 1460 ± 211 ng·h/mL, the half-life ([4]; WRAIR formulation (AS/0.3M PBS Buffer), Period 1, Day 1, read-out: t1/2 distribution (converted)) was 7.2 ± 0.6 min and the half-life ([4]; WRAIR formulation (AS/0.3M PBS Buffer), Period 1, Day 1, read-out: t1/2 elimination (converted)) was 58.8 ± 8.4 min. For the same compound, the Cmax [4, 8] was 2810 ng/mL, the MRT [4, 8] was 20.4 ± 6.6 min and the Tmax [4, 8] was 15 min. It also gave an average plasma concentration over 0–72 h (Cav = AUC0–72 h/72) [4, 8] of 367 ng·h/mL, an AUC(0-t) [4, 8] of 1100 ng·h/mL and an AUC [4, 8] of 1110 ± 174 ng·h/mL. For the same compound, the half-life ([4]; WRAIR formulation (AS/0.3M PBS Buffer), Period 1, Day 3, read-out: t1/2 distribution (converted)) was 5.4 ± 0.6 min, the half-life ([4]; WRAIR formulation (AS/0.3M PBS Buffer), Period 1, Day 3, read-out: t1/2 elimination (converted)) was 54 ± 7.2 min and the Cmax [4, 13] was 3520 ng/mL. The MRT [4, 13] was 24 ± 2.4 min, the Tmax [4, 13] was 15 min and the AUC(0-t) [4, 13] was 1510 ng·h/mL. The AUC [4, 13] was 1510 ± 293 ng·h/mL, the half-life ([4]; WRAIR formulation (AS/0.3M PBS Buffer), Period 2, Day 1, read-out: t1/2 distribution (converted)) was 8.4 ± 0.6 min and the half-life ([4]; WRAIR formulation (AS/0.3M PBS Buffer), Period 2, Day 1, read-out: t1/2 elimination (converted)) was 54.6 ± 4.2 min. For the same compound, the Cmax [4, 9] was 3120 ng/mL, the MRT [4, 9] was 23.4 ± 1.8 min and the Tmax [4, 9] was 15 min. The AUC(0-t) [4, 9] was 1040 ng·h/mL, the AUC [4, 9] was 1050 ± 160 ng·h/mL and the half-life ([4]; WRAIR formulation (AS/0.3M PBS Buffer), Period 2, Day 3, read-out: t1/2 distribution (converted)) was 5.4 ± 8.4 min. For the same compound, the half-life ([4]; WRAIR formulation (AS/0.3M PBS Buffer), Period 2, Day 3, read-out: t1/2 elimination (converted)) was 52.8 ± 8.4 min.
